Source: patent publication US20250302822A1, “COMPOSITION FOR ENHANCING ANTICANCER EFFECT OF MEK INHIBITOR COMPRISING ARIPIPRAZOLE AS ACTIVE INGREDIENT” (KOREA INSTITUTE OF RADIOLOGICAL & MEDICAL SCIENCES, priority 2022, published 2025)

Key:
[1] = test system: PUMA; experiment: PUMA protein expression in COLO 205 cells via Western blot; assay type: cell-based; details: eight hours after treatment, Western blot (FIG. 1)
Experimental: (§1) To identify an effect of aripiprazole on the expression of NOXA and PUMA proteins in cancer cells, COLO 205 cells were treated with aripiprazole. Eight hours later, proteins were extracted from cells after washing with PBS, and a level of NOXA and PUMA expression was checked via Western blot.

[2] = test system: NOXA; experiment: NOXA protein expression in COLO 205 cells via Western blot; assay type: cell-based; details: eight hours after treatment, Western blot (FIG. 1)
Experimental: as §1

O=C1CCc2ccc(OCCCCN3CCN(c4cccc(Cl)c4Cl)CC3)cc2N1 [aripiprazole] was tested, and the “expression of PUMA protein” value [1] was “increased” and the “expression of NOXA protein” value [2] was “increased”.
